Data: publication PMC6647725 (Analytical and Bioanalytical Chemistry, 2019)

Experiments:
[1] = Stability of stock solutions at − 20 °C; format: physicochemical; settings: 1 mg/mL stock solution, storage at − 20 °C
Experimental: (§1) The stability of each analyte was investigated in all the previously mentioned matrices. For plasma (both human and mouse), the stability was determined in triplicate at two concentration levels, QC L and QC H, whereas for mouse tissue homogenates only at QC M (except the brain in one stability condition). For all matrices, the following stability conditions were assessed: short term at room temperature (RT), long term at − 20 °C, and after 3 freeze-thaw (F/T) cycles at − 20 °C/RT. Furthermore, for tissue homogenates, the short-term stability in ice-water, long-term stability at − 70 °C, and F/T stability at − 70 °C/ice-water were also evaluated. Additionally, the stability in the final extract was tested. For this, the QC L and QC H final extracts from the plasma, brain, and spleen and the QC M final extract from the liver, kidney and small intestine were stored at 4–8 °C up to 3 days. Lastly, the stability of the stock solutions at − 20 °C was investigated.

[2] = Stability in mouse plasma and its final extract (LC-MS/MS); format: in vitro ADME
Experimental: 50 μL of the sample (either from a preclinical study, calibration standard, or QC) was mixed with 25 μL of IS-working solution, followed by 150 μL of ACN for protein precipitation. Samples were vortex mixed and centrifuged at 23,100g for 10 min at 20 °C. An aliquot of 80 μL of supernatant was diluted with 120 μL of 10 mM ammonium bicarbonate in water:MeOH (1:1 v/v). The final extract was transferred to a glass vial with insert, and 10 μL was injected to the LC-MS/MS system for analysis.
as §1, with “For this, the QC L and QC H final extracts from the plasma, brain, and spleen and the QC M final extract from the liver, kidney and small intestine were stored at 4–8 °C up to 3 days.” left out

[3] = Plasma pharmacokinetics in mice after oral administration; format: in vivo, mouse (FVB)
Experimental: This method was developed to support pharmacokinetic and tissue distribution studies of the CDK4/6 inhibitors in mice (FVB background). These studies were done separately for each drug. Animal housing and studies were conducted according to institutional guidelines complying with Dutch and European Union legislation (approval number from The Dutch Central Animal Testing Committee: AVD301002016595). […] Approximately 50 μL of blood was collected from the tip of the tail at several time points, except at the last one, when 500–1000 μL of blood was collected by cardiac puncture under isoflurane anesthesia. […] Mice were sacrificed by cervical dislocation and the organs were collected and weighed. Plasma was obtained using sodium heparin as anticoagulant after centrifugation at 9000g, 4 °C, for 6 min. When necessary, 10 μL of mouse plasma was diluted with 40 μL of human plasma. The tissue homogenates were prepared according to the procedure described in the “Tissue homogenate preparation” section. Plasma and tissue homogenate samples were stored at − 20 and − 70 °C, respectively, until the LC-MS/MS analysis was performed.

[4] = Tissue distribution in mice after oral administration; format: in vivo, mouse (FVB); settings: female FVB mice, 20 mg/kg oral, 24 h
Experimental: After weighing the complete organ, a volume of 3 mL of this solution was added to the liver and small intestine, 2 mL to the kidneys, and 1 mL to the brain and spleen. The tissue/BSA ratio (w/v) of the homogenates were approximately 0.4:1 for the brain and liver, 0.1:1 for the spleen, 0.2:1 for the kidneys, and 0.25:1 for the small intestine. All samples were shaken in the Fast Prep at 6.0 m/s during 60 s. This method was developed to support pharmacokinetic and tissue distribution studies of the CDK4/6 inhibitors in mice (FVB background). These studies were done separately for each drug. Animal housing and studies were conducted according to institutional guidelines complying with Dutch and European Union legislation (approval number from The Dutch Central Animal Testing Committee: AVD301002016595). […] Approximately 50 μL of blood was collected from the tip of the tail at several time points, except at the last one, when 500–1000 μL of blood was collected by cardiac puncture under isoflurane anesthesia. […] Mice were sacrificed by cervical dislocation and the organs were collected and weighed. Plasma was obtained using sodium heparin as anticoagulant after centrifugation at 9000g, 4 °C, for 6 min. When necessary, 10 μL of mouse plasma was diluted with 40 μL of human plasma. […]

[5] = final extract (listed under mouse plasma), 4–8 °C, 4 d, nominal 5 ng/mL
[6] = final extract (listed under mouse plasma), 4–8 °C, 4 d, nominal 150 ng/mL
[7] = mouse plasma, 3 F/T (− 20 °C/RT), nominal 5 ng/mL
[8] = mouse plasma, 3 F/T (− 20 °C/RT), nominal 150 ng/mL
[9] = mouse plasma, RT, 3 d, nominal 150 ng/mL
[10] = mouse plasma, − 20 °C, 3 m, nominal 5 ng/mL
[11] = mouse plasma, − 20 °C, 3 m, nominal 150 ng/mL

Which “stability of stock solutions (time stable)” value [1] does the source give for `CCN1CCN(Cc2ccc(Nc3ncc(F)c(-c4cc(F)c5nc(C)n(C(C)C)c5c4)n3)nc2)CC1` [Abemaciclib] here?
The value was “at least 12 months”.

What about the “Accuracy (% Bias)” value [2, 5] of the same compound?
Its value is 8.1%.

What about the Mean concentration [2, 5] of the same compound?
The Mean concentration was 5.4 ng/mL.

What about the “Accuracy (% Bias)” value [2, 6] of the same compound?
The value was 5.1%.

What about the Mean concentration [2, 6] of the same compound?
Its Mean concentration is 157.7 ng/mL.

What about the “Accuracy (% Bias)” value [2, 7] of the same compound?
Its value is 4.3%.

And the Mean concentration [2, 7]?
Its Mean concentration is 5.2 ng/mL.

And the “Accuracy (% Bias)” value [2, 8]?
The value was 7.6%.

What about the Mean concentration [2, 8] of the same compound?
Its Mean concentration is 161.3 ng/mL.

And the Mean concentration ([2]; mouse plasma, RT, 3 d, nominal 5 ng/mL)?
Its Mean concentration is 4.8 ng/mL.

And the “Accuracy (% Bias)” value [2, 9]?
Its value is 6.2%.

What about the Mean concentration [2, 9] of the same compound?
Its Mean concentration is 159.3 ng/mL.

And the “Accuracy (% Bias)” value [2, 10]?
The value was 1.0%.

And the Mean concentration [2, 10]?
Its Mean concentration is 5.1 ng/mL.

And the “Accuracy (% Bias)” value [2, 11]?
The value was 21.8%.

What about the Mean concentration [2, 11] of the same compound?
The Mean concentration was 182.7 ng/mL.

And the concentration at 24 h ([3]; FVB, po, mouse plasma, 10 mg/kg orally administered, t = 24 h, read-out: plasma concentration of representative sample)?
Its concentration at 24 h is 74.3 ng/mL.

What does the source list for `CN(C)C(=O)c1cc2cnc(Nc3ccc(N4CCNCC4)cn3)nc2n1C1CCCC1` [Ribociclib]?
stability of stock solutions (time stable) [1]: at least 12 months; Accuracy (% Bias) [2, 11]: 4.7%; concentration at 8 h ([3]; female, FVB, po, mouse plasma, 20 mg/kg orally administered, t = 8 h, read-out: plasma concentration of representative sample): 625 ng/mL; Cmax ([3]; mouse, female FVB mice, 20 mg/kg oral, plasma, n = 6): 1040 ± 352 ng/mL; AUC(0-t) ([3]; mouse, female FVB mice, 20 mg/kg oral, plasma, n = 6, read-out: AUC0–24h): 6880 ± 1220 ng·h/mL; Tmax ([3]; mouse, female FVB mice, 20 mg/kg oral, plasma, n = 6, read-out: Tmax range): 30 to 60 min; concentration in the brain compared with other tissues [4]: much lower; tissue distribution ([4]; spleen, kidney, liver, small intestine): highly distributed in the spleen and kidney, followed by the liver and small intestine
